Where a name gives a salt, the structure may show the parent alone.

For the first test, the target named is T1, hNET (Homo sapiens, UniProt P23975).
T1 construct: expressed in transfected cells
T1 sequence (P23975 whole entry): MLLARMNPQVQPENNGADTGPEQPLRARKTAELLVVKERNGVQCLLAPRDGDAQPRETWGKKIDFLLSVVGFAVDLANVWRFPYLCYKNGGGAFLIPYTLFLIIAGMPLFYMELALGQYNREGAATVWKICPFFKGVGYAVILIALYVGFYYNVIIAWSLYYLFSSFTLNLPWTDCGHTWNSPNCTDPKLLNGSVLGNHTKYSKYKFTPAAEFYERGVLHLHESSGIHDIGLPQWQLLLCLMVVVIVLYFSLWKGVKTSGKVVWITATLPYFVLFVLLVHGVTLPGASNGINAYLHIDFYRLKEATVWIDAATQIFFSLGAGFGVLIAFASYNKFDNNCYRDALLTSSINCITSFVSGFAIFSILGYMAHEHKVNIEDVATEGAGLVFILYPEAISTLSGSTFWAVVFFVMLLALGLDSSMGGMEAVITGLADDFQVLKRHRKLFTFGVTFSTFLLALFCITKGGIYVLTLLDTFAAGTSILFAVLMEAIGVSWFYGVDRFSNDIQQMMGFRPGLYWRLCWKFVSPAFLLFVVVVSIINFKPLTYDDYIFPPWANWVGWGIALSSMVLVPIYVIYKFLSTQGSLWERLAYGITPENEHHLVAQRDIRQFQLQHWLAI
In words: Norepinephrine (NE) uptake assay in MDCK-Net6 cells stably transfected with human hNET. In kind it is cell-based. To be noted: MDCK-Net6, read-out: % Inhibition @ 1 μM (hNET). On the procedure:
Cells were plated at 300,000/T75 flask and cells were split twice weekly. […] Cells were plated at 250,000 cells/T75 flask and split twice weekly.
On day 1, cells were plated at 3,000 cells/well in growth medium and maintained in a cell incubator (37° C., 5% CO2). On day 2, growth medium was replaced with 200 μl of assay buffer (25 mM HEPES; 120 mM NaCl; 5 mM KCl; 2.5 mM CaCl2; 1.2 mM MgSO4; 2 mg/ml glucose (pH 7.4, 37° C.)) containing 0.2 mg/ml ascorbic acid and 10 μM pargyline. Plates containing cells with 200 μl of assay buffer were equilibrated for 10 minutes at 37° C. prior to addition of compounds. A stock solution of desipramine was prepared in DMSO (10 mM) and delivered to triplicate wells containing cells for a final test concentration of 1 μM. Data from these wells were used to define non-specific NE uptake (minimum NE uptake). Test compounds were prepared in DMSO (10 mM) and diluted in assay buffer according to test range (1 to 10,000 nM). Twenty-five microliters of assay buffer (maximum NE uptake) or test compound were added directly to triplicate wells containing cells in 200 μl of assay buffer. The cells in assay buffer with test compounds were incubated for 20 minutes at 37° C. To initiate the NE uptake, [^3H]NE diluted in assay buffer (120 nM final assay concentration) was delivered in 25 μl aliquots to each well and the plates were incubated for 5 minutes (37° C.). The reaction was terminated by decanting the supernatant from the plate. The plates containing cells were washed twice with 200 μl assay buffer (37° C.) to remove free radioligand. The plates were then inverted, left to dry for 2 minutes, then reinverted and air-dried for an additional 10 minutes. The cells were lysed in 25 μl of 0.25 N NaOH solution (4° C.), placed on a shake table and vigorously shaken for 5 minutes. After cell lysis, 75 μl of scintillation cocktail was added to each well and the plates were sealed with film tape. The plates were returned to the shake table and vigorously shaken for a minimum of 10 minutes to ensure adequate partitioning of organic and aqueous solutions. The plates were counted in a Wallac Microbeta counter (PerkinElmer) to collect the raw cpm data.
For each experiment, a data stream of cpm values collected from the Wallac Microbeta counter was downloaded to a Microsoft Excel statistical application program. Calculations of EC50 values were made using the transformed-both-sides logistic dose response program written by Wyeth Biometrics Department.
One may read the inhibition as the drop in the measured response relative to a control, in per cent. For the molecule `CNC[C@@H](O)[C@H](c1ccccc1C)n1ccc2ccccc21` (single isomer, unassigned) [Example 53, hydrochloride], the inhibition at 1 µM worked out at 57.4%.

For the molecule `CNC[C@H](O)[C@@H](c1ccccc1C)n1ccc2ccccc21` (single isomer, unassigned) [Example 54, hydrochloride], the inhibition at 1 µM amounted to 68.6%.

For `CNCC(O)[C@@H](c1ccccc1)n1ccc2ccccc21` (stereo in doubt) [Example 22, (1R,2S)-1-(1H-indol-1-yl)-3-(methylamino)-1-phenylpropan-2-ol hydrochloride], the inhibition at 1 µM is 83.8%.

Consider `CNCC(O)[C@H](c1ccccc1)n1ccc2ccccc21` (stereo in doubt) [Example 23, (1S,2R)-1-(1H-indol-1-yl)-3-(methylamino)-1-phenylpropan-2-ol hydrochloride], for which the inhibition at 1 µM turned out to be 89.7%.

Turning to `CNC[C@@H](O)[C@H](c1cccc(Cl)c1)n1ccc2ccccc21` [Example 33, (1S,2R)-1-(3-chlorophenyl)-1-(1H-indol-1-yl)-3-(methylamino)propan-2-ol hydrochloride], the inhibition at 1 µM stood at 99.4%.

For `CNC[C@@H](O)[C@H](c1ccc(Cl)cc1)n1ccc2ccccc21` [Example 34, (1S,2R)-1-(4-chlorophenyl)-1-(1H-indol-1-yl)-3-(methylamino)propan-2-ol hydrochloride], the inhibition at 1 µM came to 78.4%.

In the case of `CNC[C@@H](O)[C@H](c1ccccc1Cl)n1ccc2ccccc21` [Example 38, (1S,2R)-1-(2-chlorophenyl)-1-(1H-indol-1-yl)-3-(methylamino)propan-2-ol hydrochloride], the inhibition at 1 µM is 71.9%.

For `CNC[C@@H](O)[C@H](c1cccc(Br)c1)n1ccc2ccccc21` [Example 43, (1S,2R)-1-(3-bromophenyl)-1-(1H-indol-1-yl)-3-(methylamino)propan-2-ol hydrochloride], the inhibition at 1 µM is 99%.

Take `CNC[C@@H](O)[C@H](c1cccc(F)c1)n1ccc2ccccc21` [Example 47, (1S,2R)-1-(3-fluorophenyl)-1-(1H-indol-1-yl)-3-(methylamino)propan-2-ol hydrochloride]: the inhibition at 1 µM came to 99.9%.

In the case of `CNC[C@@H](O)[C@H](c1ccccc1F)n1ccc2ccccc21` [Example 50, (1S,2R)-1-(2-fluorophenyl)-1-(1H-indol-1-yl)-3-(methylamino)propan-2-ol hydrochloride], the inhibition at 1 µM is 91.8%.

In the case of `CNC[C@@H](O)[C@H](c1ccc(F)cc1)n1ccc2ccccc21` [Example 51, (1S,2R)-1-(4-fluorophenyl)-1-(1H-indol-1-yl)-3-(methylamino)propan-2-ol hydrochloride], the inhibition at 1 µM is 87%.

As to `CNC[C@@H](O)[C@H](c1cccc(C)c1)n1ccc2ccccc21` [Example 52, (1S,2R)-1-(1H-indol-1-yl)-3-(methylamino)-1-(3-methylphenyl)propan-2-ol hydrochloride], the inhibition at 1 µM amounted to 94.3%.

With `CNC[C@@H](O)[C@H](c1ccc(C)cc1)n1ccc2ccccc21` [Example 59, (1S,2R)-1-(1H-indol-1-yl)-3-(methylamino)-1-(4-methylphenyl)propan-2-ol hydrochloride], the inhibition at 1 µM was found to be 93.2%.

Staying with this test, now noted: hydrochloride, 1 µM.
For `CNC[C@H](O)[C@H](c1ccccc1)n1ccc2ccccc21` (stereo in doubt) [Example 30, (1S,2S)-1-(1H-indol-1-yl)-3-(methylamino)-1-phenylpropan-2-ol hydrochloride], the “% Inhibition @ 1 μM (hNET)” value amounted to 79.7%.

As for `CNC[C@@H](O)[C@@H](c1ccccc1)n1ccc2ccccc21` [Example 29, (1R,2R)-1-(1H-indol-1-yl)-3-(methylamino)-1-phenylpropan-2-ol hydrochloride], the “% Inhibition @ 1 μM (hNET)” value is 89.5%.

The test is the same for the next values; noted with them: test compound 1 μM; [3H]NE uptake, MDCK-Net6 cells; read-out: % Inhibition @ 1 μM (hNET).
With `Cc1cn([C@@H](c2ccccc2)[C@H](O)CN)c2ccc(F)cc12` (racemic) [Example 118, (1SR,2RS)-3-amino-1-(5-fluoro-3-methyl-1H-indol-1-yl)-1-phenylpropan-2-ol hydrochloride], the inhibition at 1 µM came to 67.9%.

As for `CNC[C@@H](O)[C@H](c1ccc(OC(F)(F)F)cc1)n1ccc2ccccc21` (single isomer, unassigned) [Example 40, hydrochloride], the inhibition at 1 µM amounted to 57.6%.

As for `CNC[C@H](O)[C@@H](c1ccc(OC(F)(F)F)cc1)n1ccc2ccccc21` (single isomer, unassigned) [Example 41, hydrochloride], the inhibition at 1 µM was 32.4%.

For the molecule `OC(CNC1CC1)C(c1cccc(F)c1)n1ccc2ccccc21` (stereo in doubt) [Example 111, (1S,2R)-3-(cyclopropylamino)-1-(3-fluorophenyl)-1-(1H-indol-1-yl)propan-2-ol hydrochloride], the inhibition at 1 µM turned out to be 42.7%.

`CN1CCN(C[C@H](O)[C@@H](c2ccccc2)n2ccc3ccccc32)CC1` [Example 1, 1RS,2SR)-1-(1H-indol-1-yl)-3-(4-methylpiperazin-1-yl)-1-phenyl propan-2-ol dihydrochloride]: the inhibition at 1 µM was 4.6%.

Consider `CNC[C@@H](O)[C@H](c1cccc(OC(F)(F)F)c1)n1ccc2ccccc21` [Example 35, (1S,2R)-1-(1H-indol-1-yl)-3-(methylamino)-1-[3-(trifluoromethoxy)phenyl]propan-2-ol hydrochloride], for which the inhibition at 1 µM amounted to 94.3%.

`CNC[C@@H](O)[C@H](c1ccccc1OC(F)(F)F)n1ccc2ccccc21` [Example 36, (1S,2R)-1-(1H-indol-1-yl)-3-(methylamino)-1-[2-(trifluoromethoxy)phenyl]propan-2-ol hydrochloride]: the inhibition at 1 µM was determined as 82.3%.

Consider `CNC[C@H](O)[C@@H](c1ccccc1OC(F)(F)F)n1ccc2ccccc21` [Example 37, (1R,2S)-1-(1H-indol-1-yl)-3-(methylamino)-1-[2-(trifluoromethoxy)phenyl]propan-2-ol hydrochloride], for which the inhibition at 1 µM is 21.4%.

For `NCC[C@@H](O)[C@H](c1cccc(Cl)c1)n1ccc2ccccc21` [Example 42, (1S,2R)-4-amino-1-(3-chlorophenyl)-1-(1H-indol-1-yl)butan-2-ol hydrochloride], the inhibition at 1 µM is 95.7%.

Take `CNC[C@@H](O)[C@H](c1cccc(C#N)c1)n1ccc2ccccc21` [Example 44, 3-[(1S,2R)-2-hydroxy-1-(1H-indol-1-yl)-3-(methylamino)propyl]benzonitrile hydrochloride]: the inhibition at 1 µM was found to be 98.2%.

For `CNC[C@@H](O)[C@H](c1cccc(F)c1)n1cc(-c2cccc(C)c2)c2ccccc21` [Example 48, (1S,2R)-1-(3-fluorophenyl)-3-(methylamino)-1-[3-(3-methylphenyl)-1H-indol-1-yl]propan-2-ol hydrochloride], the inhibition at 1 µM was found to be 96.6%.

As to `CNC[C@@H](O)[C@H](c1ccc(F)cc1)n1cc(C)c2ccccc21` [Example 49, (1S,2R)-1-(4-fluorophenyl)-3-(methylamino)-1-(3-methyl-1H-indol-1-yl)propan-2-ol hydrochloride], the inhibition at 1 µM was 101%.

Consider `CCNC[C@@H](O)[C@H](c1cccc(F)c1)n1ccc2ccccc21` [Example 55, (1S,2R)-3-(ethylamino)-1-(3-fluorophenyl)-1-(1H-indol-1-yl)propan-2-ol hydrochloride], for which the inhibition at 1 µM was determined as 61.1%.

On to `O[C@H](CN1CCOCC1)[C@H](c1cccc(F)c1)n1ccc2ccccc21` [Example 56, (1S,2R)-1-(3-fluorophenyl)-1-(1H-indol-1-yl)-3-morpholin-4-ylpropan-2-ol hydrochloride], for which the inhibition at 1 µM came out at 12.3%.

As for `CCCNC[C@@H](O)[C@H](c1cccc(F)c1)n1ccc2ccccc21` [Example 57, (1S,2R)-1-(3-fluorophenyl)-1-(1H-indol-1-yl)-3-(propylamino)propan-2-ol hydrochloride], the inhibition at 1 µM is 17.5%.

For the molecule `CN1CCN(C[C@@H](O)[C@H](c2cccc(F)c2)n2ccc3ccccc32)CC1` [Example 58, (1S,2R)-1-(3-fluorophenyl)-1-(1H-indol-1-yl)-3-(4-methylpiperazin-1-yl)propan-2-ol dihydrochloride], the inhibition at 1 µM is 26.5%.

Regarding `CNC[C@@H](O)[C@H](c1cccc(F)c1)n1cc(-c2ccccc2C)c2ccccc21` [Example 62, (1S,2R)-1-(3-fluorophenyl)-3-(methylamino)-1-[3-(2-methylphenyl)-1H-indol-1-yl]propan-2-ol], the inhibition at 1 µM is 99.7%.

The record behind these values is US20090093469A1, “Phenylaminopropanol Derivatives and Methods of Their Use” (WYETH, priority 2004, published 2009).
